Laboratory results reported in ChEMBL document CHEMBL3045675, “Synthesis and structure-activity relationships of some pesticides with an alpha-amino acid function” (Biochim Biophys Acta, 1997).
Active and inactive are the calls of the source. The calls are words filed in the database; no cut-off is given here.

Assays:
[1] = Solubility in hydrochloric acid; assay type: physicochemical
Vicia faba [2] = assay: Herbicidal activity against Vicia faba assessed as inhibition of 1 mM of [U-14C]theronine uptake in mesophyll after 1 hr by autoradiographic analysis relative to untreated control; assay type: functional, organism-based
Vicia faba [3] = assay: Herbicidal activity against Vicia faba assessed as inhibition of 1 mM of [3H]sucrose uptake in leaf at 1 mM after 1 hr by liquid scintillation counting analysis relative to untreated control; assay type: functional, organism-based
[4] = Solubility in water; assay type: physicochemical; conditions: buffer
Vicia faba [5] = assay: Herbicidal activity against Vicia faba assessed as inhibition of 1 mM of L-[3H]theronine uptake in leaf at 1 mM after 1 hr by liquid scintillation counting analysis relative to untreated control; assay type: functional
[6] = Solubility in organic solvents; assay type: physicochemical
[7] = Octanol-water partition coefficient, log KOW of the compound; assay type: physicochemical; conditions: read-out: log KOW
Vicia faba [8] = assay: Herbicidal activity against Vicia faba assessed as inhibition of 1 mM of [U-14C]theronine uptake in veins after 1 hr by autoradiographic analysis relative to untreated control; assay type: functional, organism-based
Vicia faba [9] = assay: Herbicidal activity against Vicia faba assessed as 1 mM of L-[3H]theronine uptake in leaf at 10 mM after 1 hr by liquid scintillation counting analysis relative to untreated control; assay type: functional
Vicia faba [10] = assay: Herbicidal activity against Vicia faba assessed as 1 mM of L-[3H]theronine uptake in leaf at 1 mM after 1 hr by liquid scintillation counting analysis relative to untreated control; assay type: functional
Vicia faba [11] = assay: Herbicidal activity against Vicia faba assessed as 1 mM of L-[3H]theronine uptake in leaf at 5 mM after 1 hr by liquid scintillation counting analysis relative to untreated control; assay type: functional
Vicia faba [12] = assay: Herbicidal activity against Vicia faba assessed as inhibition of threonine uptake; assay type: functional, organism-based; conditions: read-out: Ki(app)
Vicia faba [13] = assay: Herbicidal activity against Vicia faba assessed as 1 mM of L-[3H]theronine uptake in leaf at 5 uM after 1 hr by liquid scintillation counting analysis relative to untreated control; assay type: functional
Vicia faba [14] = assay: Herbicidal activity against Vicia faba assessed as decrease in 1 mM of L-[3H]glutamate uptake in leaf at pH 8 at 2.5 mM after 1 hr by liquid scintillation counting analysis; assay type: functional, organism-based
Vicia faba [15] = assay: Herbicidal activity against Vicia faba assessed as inhibition of 1 mM of L-[3H]lysine uptake in leaf at pH 4 at 2.5 mM after 1 hr by liquid scintillation counting analysis; assay type: functional
Vicia faba [16] = assay: Herbicidal activity against Vicia faba assessed as inhibition of 1 mM of L-[3H]glutamate uptake in leaf at pH 4 at 2.5 mM after 1 hr by liquid scintillation counting analysis; assay type: functional
Vicia faba [17] = assay: Herbicidal activity against Vicia faba assessed as 1 mM of L-[3H]glutamate uptake in leaf at 1 mM after 1 hr by liquid scintillation counting analysis relative to untreated control; assay type: functional
Vicia faba [18] = assay: Herbicidal activity against Vicia faba assessed as decrease in 1 mM of L-[3H]lysine uptake in leaf at pH 8 at 2.5 mM after 1 hr by liquid scintillation counting analysis; assay type: functional, organism-based
Vicia faba [19] = assay: Herbicidal activity against Vicia faba assessed as 1 mM of L-[3H]theronine uptake in leaf at 20 uM after 1 hr by liquid scintillation counting analysis relative to untreated control; assay type: functional
Vicia faba [20] = assay: Herbicidal activity against Vicia faba assessed as 1 mM of L-[3H]lysine uptake in leaf at 1 mM after 1 hr by liquid scintillation counting analysis relative to untreated control; assay type: functional, organism-based
Vicia faba [21] = assay: Herbicidal activity against Vicia faba assessed as change in 12 mM KCl-induced depolarization of transmembrane potential difference in mesophyll cells at 2.5 mM after 1 hr by electrophysiological assay; assay type: functional, organism-based
Vicia faba [22] = assay: Herbicidal activity against Vicia faba assessed as 1 mM of L-[3H]theronine uptake in leaf at 10 uM after 1 hr by liquid scintillation counting analysis relative to untreated control; assay type: functional
Vicia faba [23] = assay: Herbicidal activity against Vicia faba assessed as inhibition of 1 mM of L-[3H]threonine uptake in leaf at pH 4 at 2.5 mM after 1 hr by liquid scintillation counting analysis; assay type: functional
Vicia faba [24] = assay: Herbicidal activity against Vicia faba assessed as reduction in 10 mM threonine-induced depolarization of transmembrane potential difference in mesophyll cells at 2.5 mM after 1 hr by electrophysiological assay relative to control; assay type: functional, organism-based
Vicia faba [25] = assay: Herbicidal activity against Vicia faba assessed as change in 10 mM sucrose-induced depolarization of transmembrane potential difference in mesophyll cells at 2.5 mM after 1 hr by electrophysiological assay relative to control; assay type: functional, organism-based
Vicia faba [26] = assay: Herbicidal activity against Vicia faba assessed as decrease in 1 mM of L-[3H]lysine uptake in leaf at pH 3.5 at 2.5 mM after 1 hr by liquid scintillation counting analysis; assay type: functional, organism-based
Vicia faba [27] = assay: Herbicidal activity against Vicia faba assessed as change in 12 mM KCl-induced depolarization of transmembrane potential difference in mesophyll cells at 1 mM after 1 hr by electrophysiological assay; assay type: functional, organism-based
Vicia faba [28] = assay: Herbicidal activity against Vicia faba assessed as inhibition of 1 mM of [U-14C]theronine loading in phloem after 1 hr by autoradiographic analysis relative to untreated control; assay type: functional, organism-based
Vicia faba [29] = assay: Herbicidal activity against Vicia faba assessed as change in 10 mM sucrose-induced depolarization of transmembrane potential difference in mesophyll cells at 1 mM after 1 hr by electrophysiological assay (reference value: 9.2 +/- 7.1 mV); assay type: functional
Vicia faba [30] = assay: Herbicidal activity against Vicia faba assessed as change in transmembrane potential difference in mesophyll cells at 1 mM after 1 hr by electrophysiological assay (reference value: - 154 +/- 13.2 mV); assay type: functional
Vicia faba [31] = assay: Herbicidal activity against Vicia faba assessed as reduction in 10 mM threonine-induced depolarization of transmembrane potential difference in mesophyll cells at 1 mM after 1 hr by electrophysiological assay (reference value: 27.9 +/- 12.7 mV); assay type: functional

SMILES: Nc1ccc(OCC(=O)NCCCC[C@H](N)C(=O)O)cc1
- solubility [1]: soluble
- inhibition (Vicia faba [2]): Active
- inhibition (Vicia faba [3]): inactive
- solubility [4]: soluble
- inhibition (Vicia faba [5]): inactive
- solubility [6]: Insoluble
- logP [7]: -3
- inhibition (Vicia faba [8]): Active

SMILES: N[C@@H](CCC(=O)O)C(=O)O [GLUTAMIC ACID]
- Activity (Vicia faba [9]): 67.2%
- Activity (Vicia faba [10]): 96.7%
- Activity (Vicia faba [11]): 76.2%

SMILES: Cc1cc(Cl)ccc1OCC(=O)NCCCC[C@H](N)C(=O)O [L-LYSINE-2-METHYL-4-CHLOROROPHENOXYACETIC ACID]
- solubility [1]: soluble
- inhibition (Vicia faba [3]): inactive
- solubility [4]: soluble
- inhibition (Vicia faba [5]): Active
- solubility [6]: Insoluble
- logP [7]: -0.59

SMILES: NCCCC[C@H](N)C(=O)O [LYSINE]
- Activity (Vicia faba [9]): 104%
- Activity (Vicia faba [10]): 97%
- Activity (Vicia faba [11]): 99.6%

SMILES: N[C@@H](CCCCNC(=O)COc1ccc(Cl)cc1)C(=O)O [L-LYSINE-4-CHLOROPHENOXYACETIC ACID]
- inhibition (Vicia faba [3]): inactive

SMILES: N[C@@H](CCCCNC(=O)COc1ccc([N+](=O)[O-])cc1)C(=O)O [L-LYSINE-4-NITROPHENOXYACETICACID]
- inhibition (Vicia faba [3]): inactive

SMILES: N[C@@H](CCCCNC(=O)COc1ccc(Cl)cc1Cl)C(=O)O
- Ki (Vicia faba [12]): 500 µM
- solubility [1]: soluble
- Activity (Vicia faba [13]): 91.8%
- Activity (Vicia faba [14]): Active
- inhibition (INH) (Vicia faba [15]): 81%
- inhibition (INH) (Vicia faba [16]): 51%
- inhibition (Vicia faba [3]): inactive
- inhibition (Vicia faba [17]): Active
- solubility [4]: soluble
- inhibition (Vicia faba [5]): Active
- Activity (Vicia faba [18]): Active
- Activity (Vicia faba [19]): 80.7%
- inhibition (Vicia faba [20]): Active
- Activity (Vicia faba [21]): inactive
- Activity (Vicia faba [22]): 91%
- inhibition (INH) (Vicia faba [23]): 79%
- Activity (Vicia faba [24]): inactive
- Activity (Vicia faba [25]): inactive
- Activity (Vicia faba [26]): inactive
- solubility [6]: Insoluble
- logP [7]: -0.49

SMILES: N[C@@H](CCCCNC(=O)CCCOc1ccc(Cl)cc1Cl)C(=O)O
- Activity (Vicia faba [27]): inactive
- solubility [1]: soluble
- inhibition (Vicia faba [3]): inactive
- inhibition (Vicia faba [28]): Active
- inhibition (Vicia faba [17]): Active
- solubility [4]: soluble
- Activity (Vicia faba [29]): 10.1 mV
- inhibition (Vicia faba [5]): Active
- inhibition (Vicia faba [20]): Active
- Activity (Vicia faba [30]): -161.9 mV
- Activity (Vicia faba [31]): 10.2 mV
- solubility [6]: Insoluble
- logP [7]: -0.49

SMILES: CC(C)[C@H](N)C(=O)O [VALINE]
- Activity (Vicia faba [9]): 63.7%
- Activity (Vicia faba [10]): 99.2%
- Activity (Vicia faba [11]): 77.4%

SMILES: N[C@@H](CCCCNC(=O)COc1ccccc1)C(=O)O [L-LYSINE-PHENOXYACETIC ACID]
- inhibition (Vicia faba [2]): Active
- inhibition (Vicia faba [3]): inactive
- inhibition (Vicia faba [20]): Active
- inhibition (Vicia faba [8]): Active

SMILES: N[C@H](CCCCNC(=O)COc1ccc(Cl)cc1Cl)C(=O)O [D-LYSINE-2,4-DICHLOROPHENO-XYACETIC ACID]
- Activity (Vicia faba [10]): 74.2%
- inhibition (Vicia faba [2]): inactive
- inhibition (Vicia faba [8]): inactive
